Here are results for twelve molecules from patent publication US20220009894A1, “1,2,3,4-TETRAHYDROQUINOXALINE DERIVATIVE, PREPARATION METHOD THEREFOR AND APPLICATION THEREOF” (Abbisko Therapeutics Co., Ltd., priority 2019, published 2022).

Each structure is given as a SMILES string.

For one assay, the target named is T1, RORγt-LBD (Homo sapiens, UniProt P51449).
T1 sequence (P51449 269-508 limits assumed): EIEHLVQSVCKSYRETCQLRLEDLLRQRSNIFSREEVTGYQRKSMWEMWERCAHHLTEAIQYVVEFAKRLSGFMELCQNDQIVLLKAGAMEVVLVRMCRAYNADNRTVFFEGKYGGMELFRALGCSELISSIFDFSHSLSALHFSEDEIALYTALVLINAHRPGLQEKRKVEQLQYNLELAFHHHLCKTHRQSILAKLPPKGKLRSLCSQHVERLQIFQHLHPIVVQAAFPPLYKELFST
Briefly: Time-resolved fluorescence resonance energy-transfer assay (TR-FRET), co-activator peptide recruitment. Type of assay: biochemical. More on the design: TR-FRET Biochemical Amax: unit not given here. The note with it: for EC50: His-RORγt-LBD 30 nM, SRC peptide 500 nM, agonistic activity, averages of one or more measurements, read-out: TR-FRET Biochemical EC50/; for TR-FRET Biochemical Amax: upper activation limit, His-RORγt-LBD, SRC peptide. An outline of the steps:
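This agonist-mode TR-FRET used 30 nM His-tagged RORγt-LBD, 500 nM biotinylated SRC peptide, 0.25 nM Eu-anti-His and 5 nM APC-streptavidin in pH 7.0 Tris/KCl buffer with DTT and Triton. A 7-concentration, 5-fold compound series was incubated at 4 °C overnight plus 1 h at room temperature, and the 665/615 nm signal was read.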
In general terms: TR-FRET usually uses a lanthanide donor and a delayed reading to cut background.

The target of another assay is T2, RORγt (Homo sapiens, UniProt P51449).
T2 construct: The plasmid of pFN26A-RORγt-LBD and pG14.35 (Promega, Cat. No. E1370) were co-transfected into HEK 293 cells; expressed in transfected cells; host or cells: HEK 293 cells (Cat. No. GNHu18)
T2 sequence (P51449 269-508 limits assumed): T1 sequence (P51449 269-508 limits assumed)
Briefly: RORγt cellular reporter gene detection assay.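 As to Cellular Reporter Assay Amax: Ursolic Acid added as 5 µL of 20 µM medium per well.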 The note with it: 24 hrs; for EC50: HEK 293 cells co-transfected with pFN26A-RORγt-LBD and pG14.35, in presence of antagonist Ursolic acid, top concentration 50 μM; for Cellular Reporter Assay Amax: upper activation limit, HEK 293 cells, in presence of antagonist Ursolic acid. Type of assay: cell-based. An outline of the steps: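 Compounds, titrated 4-fold from a 50 μM top concentration, were added with Ursolic acid to HEK293 cells carrying a RORγt-LBD plasmid and a reporter plasmid. After 24 h at 37° C, dual firefly/Renilla luciferase readout; four-parameter curves gave EC50 and maximal activation (Amax).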
(Reporter assays use an easily measured gene product as a stand-in for the process of interest.)

As to `CCOC(=O)CN1CCN2c3ccc(/C=C(\C)c4c(F)cccc4Cl)cc3N(S(=O)(=O)c3cccc(C(F)(F)F)c3)C[C@@H]2C1` [Example 43, ethyl (S,E)-2-(8-(2-(2-chloro-6-fluorophenyl)prop-1-en-1-yl)-6-((3-(trifluoromethyl)phenyl)sulfonyl)-1,2,4,4a,5,6-hexahydro-3H-pyrazino[1,2-a]quinoxalin-3-yl)acetate], on RORγt-LBD, the EC50 came out at 17.2 nM and the “TR-FRET Biochemical Amax” value was found to be 0.87. Besides, at RORγt, the EC50 came to 162 nM and the “Cellular Reporter Assay Amax” value is on record as 3.0.
Taken in the same sequence, the figures for `COC(=O)CN1CCN2c3ccc(/C=C(\C)c4c(F)cccc4Cl)cc3N(S(=O)(=O)c3cccc(C(F)(F)F)c3)C[C@@H]2C1` [Example 44, methyl (S,E)-2-(8-(2-(2-chloro-6-fluorophenyl)prop-1-en-1-yl)-6-((3-(trifluoromethyl)phenyl)sulfonyl)-1,2,4,4a,5,6-hexahydro-3H-pyrazino[1,2-a]quinoxalin-3-yl)acetate] were 23.5 nM, 1.04, 256 nM and 4.2.
As to `COC(=O)CN1CCN2c3ccc(/C=C/c4c(Cl)cccc4C(F)(F)F)cc3N(S(=O)(=O)c3cccc(C(F)(F)F)c3)C[C@@H]2C1` [Example 45, methyl (S,E)-2-(8-(2-chloro-6-(trifluoromethyl)styryl)-6-((3-(trifluoromethyl)phenyl)sulfonyl)-1,2,4,4a,5,6-hexahydro-3H-pyrazino[1,2-a]quinoxalin-3-yl) acetate], the EC50 is 10.5 nM at RORγt-LBD and 375 nM on RORγt.
As to `CCOC(=O)CN1CCN2c3ccc(/C=C/c4c(Cl)cccc4C(F)(F)F)cc3N(S(=O)(=O)c3cccc(C(F)(F)F)c3)C[C@@H]2C1` [Example 46, ethyl (S,E)-2-(8-(2-chloro-6-(trifluoromethyl)styryl)-6-((3-(trifluoromethyl)phenyl)sulfonyl)-1,2,4,4a,5,6-hexahydro-3H-pyrazino [1,2-a]quinoxalin-3-yl)acetate], on RORγt-LBD, the EC50 is 5.29 nM and the “TR-FRET Biochemical Amax” value is on record as 0.72. Also, at RORγt, the EC50 was determined as 924 nM and the “Cellular Reporter Assay Amax” value came out at 4.0.
On to `CC(C)OC(=O)CN1CCN2c3ccc(/C=C/c4c(Cl)cccc4C(F)(F)F)cc3N(S(=O)(=O)c3cccc(C(F)(F)F)c3)C[C@@H]2C1` [Example 47, isopropyl (S,E)-2-(8-(2-chloro-6-(trifluoromethyl)styryl)-6-((3-(trifluoromethyl)phenyl)sulfonyl)-1,2,4,4a,5,6-hexahydro-3H-pyrazino[1,2-a]quinoxalin-3-yl) acetate], for which, at RORγt-LBD, the EC50 is 3.51 nM and the “TR-FRET Biochemical Amax” value came to 0.77. Besides, at RORγt, the EC50 turned out to be 750 nM and the “Cellular Reporter Assay Amax” value came out at 2.1.
On to `C/C(=C\c1ccc2c(c1)N(S(=O)(=O)c1cccc(C(F)(F)F)c1)C[C@@H]1CN(CC(=O)OC(C)C)CCN21)c1c(F)cccc1Cl` [Example 48, isopropyl (S,E)-2-(8-(2-(2-chloro-6-fluorophenyl)prop-1-en-1-yl)-6-((3-(trifluoromethyl)phe-nyl)sulfonyl)-1,2,4,4a,5,6-hexa-hydro-3H-pyrazino[1,2-a]quinox-alin-3-yl)acetate], for which, at RORγt-LBD, the EC50 is 10.7 nM and the “TR-FRET Biochemical Amax” value is on record as 0.67. In addition, at RORγt, the EC50 was 283 nM and the “Cellular Reporter Assay Amax” value is recorded as 1.9.
For `C/C(=C\c1ccc2c(c1)N(S(=O)(=O)c1cccc(C(F)(F)F)c1)C[C@@H]1CN(CC(=O)OCOC(=O)OC(C)C)CCN21)c1c(F)cccc1Cl` [Example 49, ((isopropoxycarbonyl)oxy)methyl (S,E)-2-(8-(2-(2-chloro-6-fluorophenyl)prop-1-en-1-yl)-6-((3-(trifluoromethyl)phenyl)sulfonyl)-1,2,4,4a,5,6-hexahydro-3H-pyrazino[1,2-a]quinoxalin-3-yl)acetate], in that order: 5.47 nM, 0.61, 238 nM and 5.2.
For `CC(C)OC(=O)OCOC(=O)CN1CCN2c3ccc(/C=C/c4c(Cl)cccc4C(F)(F)F)cc3N(S(=O)(=O)c3cccc(C(F)(F)F)c3)C[C@@H]2C1` [Example 50, ((isopropoxycarbonyl)oxy)methyl (S,E)-2-(8-(2-chloro-6-(trifluoromethyl)styryl)-6-((3-(trifluoromethyl)phenyl)sulfonyl)-1,2,4,4a,5,6-hexahydro-3H-pyrazino[1,2-a]quinoxalin-3-yl)acetate], in that order: 8.13 nM, 0.64, 676 nM and 6.3.
For `CC(C)(C)OC(=O)C(C)(C)N1CCN2c3ccc(-c4cc(F)cc(OC(F)F)c4)cc3N(S(=O)(=O)c3cccc(C(F)(F)F)c3)C[C@@H]2C1` [Example 51, tert-butyl (S)-2-(8-(3-(difluoromethoxy)-5-fluorophenyl)-6-((3-(trifluoromethyl)phenyl)sulfonyl)-1,2,4,4a,5,6-hexahydro-3H-pyrazino[1,2-a]quinoxalin-3-yl)-2-methylpropanoate], in that order: 48.7 nM, 0.77, 3940 nM and 1.5.
In the case of `CC(C)(C)OC(=O)C(C)(C)N1CCN2c3ccc(/C=C/c4c(Cl)cccc4C(F)(F)F)cc3N(S(=O)(=O)c3cccc(C(F)(F)F)c3)C[C@@H]2C1` [Example 52, tert-butyl (S,E)-2-(8-(2-chloro-6-(trifluoromethyl)styryl)-6-((3-(trifluoromethyl)phenyl)sul-fonyl)-1,2,4,4a,5,6-hexahydro-3H-pyrazino[1,2-a]quinoxalin-3-yl)-2-methylpropanoate], at RORγt-LBD, the EC50 is 184 nM and the “TR-FRET Biochemical Amax” value turned out to be 0.50. The EC50 on RORγt was no less than 50000 nM.
On to `C/C(=C\c1ccc2c(c1)N(S(=O)(=O)c1cccc(C(F)(F)F)c1)C[C@@H]1CN(C(C)(C)C(=O)OC(C)(C)C)CCN21)c1c(F)cccc1Cl` [Example 53, tert-butyl (S,E)-2-(8-(2-(2-chloro-6-fluorophenyl)prop-1-en-1-yl)-6-((3-(trifluoromethyl)phe-nyl)sulfonyl)-1,2,4,4a,5,6-hexahydro-3H-pyrazino[1,2-a]qui-noxalin-3-yl)-2-methylpropanoate], for which the EC50 is 256 nM at RORγt-LBD and no less than 50000 nM at RORγt. The “TR-FRET Biochemical Amax” value on RORγt-LBD is given as 0.55.
In the case of `CC(C)(C(=O)O)N1CCN2c3ccc(-c4cc(F)cc(OC(F)F)c4)cc3N(S(=O)(=O)c3cccc(C(F)(F)F)c3)C[C@@H]2C1` [Example 54, (S)-2-(8-(3-(difluoromethoxy)-5-fluorophenyl)-6-((3-(trifluoromethyl)phenyl)sulfonyl)-1,2,4,4a,5,6-hexahydro-3H-pyrazino[1,2-a]quinoxalin-3-yl)-2-methylpropanoic acid], on RORγt-LBD, the EC50 was found to be 20.1 nM and the “TR-FRET Biochemical Amax” value is given as 0.72. Besides, at RORγt, the EC50 is 297 nM and the “Cellular Reporter Assay Amax” value was 3.9.
